Measured values: the NIST ThermoML archive (doi:10.1016/j.tca.2015.02.020)

Experiment: molar heat capacity at constant pressure; xn = mol fraction of the nth substance listed
Conditions: 101 kPa, Small sample (50 mg) DSC

NCCO [2-aminoethan-1-ol] + O
Conditions | molar heat capacity at constant pressure [J/K/mol]
125.88 K, Glass, x1 = 0.19 | 25.67
126.5 K, Glass, x1 = 0.31 | 30.11
126.8 K, Glass, x1 = 0.73 | 44.51
126.93 K, Glass, x1 = 0.73 | 46.98
127.09 K, Glass, x1 = 0.23 | 27.92
127.56 K, Glass, x1 = 0.19 | 25.67
127.58 K, Glass, x1 = 0.23 | 28.2
128.65 K, Glass, x1 = 0.31 | 31.05
130.53 K, Glass, x1 = 0.19 | 28.03
131.15 K, Glass, x1 = 0.31 | 31.68
131.46 K, Glass, x1 = 0.73 | 45.5
131.76 K, Glass, x1 = 0.73 | 48.96
131.91 K, Glass, x1 = 0.31 | 31.68
131.92 K, Glass, x1 = 0.23 | 29.6
132.24 K, Glass, x1 = 0.23 | 29.6
132.38 K, Glass, x1 = 0.19 | 26.72
135.04 K, Glass, x1 = 0.73 | 49.95
135.19 K, Glass, x1 = 0.31 | 32.62
135.2 K, Glass, x1 = 0.19 | 30.13
135.2 K, Glass, x1 = 0.23 | 30.71
135.66 K, Glass, x1 = 0.19 | 27.77
136.91 K, Glass, x1 = 0.23 | 31.55
136.92 K, Glass, x1 = 0.31 | 33.88
137.23 K, Glass, x1 = 0.73 | 46.98
139.88 K, Glass, x1 = 0.19 | 33.27
141.59 K, Glass, x1 = 0.23 | 34.34
141.59 K, Glass, x1 = 0.31 | 36.07
141.6 K, Glass, x1 = 0.73 | 52.42
141.75 K, Glass, x1 = 0.23 | 32.67
141.75 K, Glass, x1 = 0.31 | 34.19
141.91 K, Glass, x1 = 0.73 | 47.97
142.22 K, Glass, x1 = 0.19 | 29.34
144.56 K, Glass, x1 = 0.19 | 38.25
144.88 K, Glass, x1 = 0.73 | 53.91
145.03 K, Glass, x1 = 0.31 | 35.13
145.04 K, Glass, x1 = 0.23 | 34.06
145.51 K, Glass, x1 = 0.19 | 30.91
146.28 K, Glass, x1 = 0.23 | 39.37
146.28 K, Glass, x1 = 0.31 | 40.15
146.6 K, Glass, x1 = 0.73 | 49.95
151.3 K, Glass, x1 = 0.73 | 52.92
151.46 K, Glass, x1 = 0.73 | 56.38
151.61 K, Glass, x1 = 0.31 | 39.21
154.75 K, Glass, x1 = 0.73 | 57.86
158.65 K, Liquid, x1 = 0.19 | 63.66
160.38 K, Liquid, x1 = 0.23 | 65.61
161.96 K, Liquid, x1 = 0.19 | 60.52
163.35 K, Liquid, x1 = 0.19 | 64.19
164.78 K, Liquid, x1 = 0.31 | 75.91
165.07 K, Liquid, x1 = 0.23 | 65.61
165.08 K, Liquid, x1 = 0.31 | 73.71
165.25 K, Liquid, x1 = 0.19 | 60.78
168.06 K, Liquid, x1 = 0.19 | 64.45
169.79 K, Liquid, x1 = 0.23 | 65.61
169.79 K, Liquid, x1 = 0.31 | 73.4
170.12 K, Liquid, x1 = 0.73 | 109.3
171.22 K, Liquid, x1 = 0.73 | 122.65
171.38 K, Liquid, x1 = 0.23 | 68.96
171.38 K, Liquid, x1 = 0.31 | 75.59
171.85 K, Liquid, x1 = 0.19 | 61.57
172.77 K, Liquid, x1 = 0.19 | 64.97
174.5 K, Liquid, x1 = 0.23 | 65.61
174.5 K, Liquid, x1 = 0.31 | 73.4
174.52 K, Liquid, x1 = 0.73 | 121.66
174.68 K, Liquid, x1 = 0.23 | 69.52
174.68 K, Liquid, x1 = 0.31 | 75.59
174.83 K, Liquid, x1 = 0.73 | 109.3
175.15 K, Liquid, x1 = 0.19 | 61.83
177.48 K, Liquid, x1 = 0.19 | 65.23
179.21 K, Liquid, x1 = 0.23 | 65.89
179.21 K, Liquid, x1 = 0.31 | 73.4
179.55 K, Liquid, x1 = 0.73 | 109.79
181.12 K, Liquid, x1 = 0.73 | 122.15
181.28 K, Liquid, x1 = 0.23 | 70.36
181.28 K, Liquid, x1 = 0.31 | 76.22
181.75 K, Liquid, x1 = 0.19 | 62.35
182.19 K, Liquid, x1 = 0.19 | 66.02
183.93 K, Liquid, x1 = 0.23 | 66.17
183.93 K, Liquid, x1 = 0.31 | 73.71
184.27 K, Liquid, x1 = 0.73 | 109.79
184.43 K, Liquid, x1 = 0.73 | 122.15
184.58 K, Liquid, x1 = 0.31 | 76.22
184.59 K, Liquid, x1 = 0.23 | 70.64
186.92 K, Liquid, x1 = 0.19 | 66.54
188.65 K, Liquid, x1 = 0.23 | 66.73
188.65 K, Liquid, x1 = 0.31 | 74.02
188.98 K, Liquid, x1 = 0.73 | 110.28
191.04 K, Liquid, x1 = 0.73 | 120.18
191.19 K, Liquid, x1 = 0.31 | 77.16
191.2 K, Liquid, x1 = 0.23 | 71.48
191.64 K, Liquid, x1 = 0.19 | 67.07
193.38 K, Liquid, x1 = 0.23 | 67.57
193.38 K, Liquid, x1 = 0.31 | 74.65
193.72 K, Liquid, x1 = 0.73 | 111.27
194.5 K, Liquid, x1 = 0.31 | 77.47
194.51 K, Liquid, x1 = 0.23 | 72.04
196.37 K, Liquid, x1 = 0.19 | 67.85
198.1 K, Liquid, x1 = 0.23 | 68.13
198.1 K, Liquid, x1 = 0.31 | 74.97
198.44 K, Liquid, x1 = 0.73 | 112.26
201.09 K, Liquid, x1 = 0.19 | 68.9
201.13 K, Liquid, x1 = 0.23 | 72.59
201.13 K, Liquid, x1 = 0.31 | 78.73
202.83 K, Liquid, x1 = 0.23 | 68.96
202.84 K, Liquid, x1 = 0.31 | 75.28
203.18 K, Liquid, x1 = 0.73 | 112.76
204.44 K, Liquid, x1 = 0.23 | 72.87
204.44 K, Liquid, x1 = 0.31 | 79.36
205.82 K, Liquid, x1 = 0.19 | 69.95
207.56 K, Liquid, x1 = 0.23 | 69.8
207.56 K, Liquid, x1 = 0.31 | 76.22
